Data reported in US20130040317A1, “CELL LINES COMPRISING ENDOGENOUS TASTE RECEPTORS AND THEIR USES” (THE UNIVERSITY OF NORTH CAROLINA AT CHAPEL HILL, priority 2011, published 2013).
Like-named read-outs stand apart in the source and are kept apart here.

Experiments:
Type in all cases: cell-based, human
NCI-H520 cells = assay: FLIPR calcium flux assay, tastant response in NCI-H520 cells
Description: (§1) Calcium flux assays were performed as previously described in Strachan et al., “Ribosomal S6 kinase 2 directly phosphorylates the 5-hydroxytryptamine 2A (5-HT2A) serotonin receptor, thereby modulating 5-HT2A signaling,” J Biol Chem 284:5557-5573 (2009). MB9812, NCI-H520 or NCI-H522 cells were trypsinized, counted, and seeded onto clear-bottomed 96 well plates (Greiner Bio-One; Monroe, N.C.) pre-coated with poly-D-lysine, at a density of 7.5×10^5 cells per well. After a 24 hour incubation, media was removed and replaced with a […] assay buffer (20 mM HEPES, 1× HBSS, 2.5 mM probenecid, and Ca^2+ assay dye, pH 7.4) (FLIPR® Calcium Assay Kit; Molecular Device Corp, Sunnyvale, Calif.). After a 1-hour incubation at 37° C., during which the cells were allowed to take up the dye, fluorescence responses of cells were measured with a FLIPRTETRA (Molecular Device Corp; Sunnyvale, Calif.) device upon the addition of variable concentrations of tastant, or vehicle, in the presence of assay buffer (20 mM HEPES, pH 7.4, 1× Hanks Balanced Salt [Invitrogen; Carlsbad, Calif.] and 2.5 mM probenecid). After data acquisition, a subsequent addition of […] was injected into each well, and fluorescence was measured again. Net peak responses to tastants were normalized to net peak responses to thapsigargin. […]

NCI-H522 cells = assay: FLIPR calcium flux assay, tastant response in NCI-H522 cells
Description: as §1

MB9812 cells = assay: FLIPR calcium flux assay, tastant response in MB9812 cells
Description: Calcium flux assays were performed as previously described in Strachan et al., “Ribosomal S6 kinase 2 directly phosphorylates the 5-hydroxytryptamine 2A (5-HT2A) serotonin receptor, thereby modulating 5-HT2A signaling,” J Biol Chem 284:5557-5573 (2009). MB9812, NCI-H520 or NCI-H522 cells were trypsinized, counted, and seeded onto clear-bottomed 96 well plates (Greiner Bio-One; Monroe, N.C.) pre-coated with poly-D-lysine, at a density of 7.5×10^5 cells per well. After a 24 hour incubation, media was removed and replaced with a […] assay buffer (20 mM HEPES, 1× HBSS, 2.5 mM probenecid, and Ca^2+ assay dye, pH 7.4) (FLIPR® Calcium Assay Kit; Molecular Device Corp, Sunnyvale, Calif.). After a 1-hour incubation at 37° C., during which the cells were allowed to take up the dye, fluorescence responses of cells were measured with a FLIPRTETRA (Molecular Device Corp; Sunnyvale, Calif.) device upon the addition of variable concentrations of tastant, or vehicle, in the presence of assay buffer (20 mM HEPES, pH 7.4, 1× Hanks Balanced Salt [Invitrogen; Carlsbad, Calif.] and 2.5 mM probenecid). After data acquisition, a subsequent addition of […] was injected into each well, and fluorescence was measured again. Net peak responses to tastants were normalized to net peak responses to thapsigargin. Responses were compared with that of wild-type control MB9812, NCI-H520 or NCI-H522 cells. Statistical and graphical analyses were performed using Prism v. 5.0b (GraphPad Software; La Jolla, Calif.).
MB9812, NCI-H520 and NCI-H522 cells were selected for taste stimulation. The cells were loaded with fluorescent calcium-sensitive dye, treated with a variety of tastants, and monitored for intracellular calcium release with a FLIPR imaging device.

Compound | cell response to tastant (increase in intracellular calcium, FLIPR calcium flux) (NCI-H520 cells) | cell response to tastant (increase in intracellular calcium, FLIPR calcium flux) (NCI-H522 cells) | cell response to tastant (increase in intracellular calcium, FLIPR calcium flux) (MB9812 cells) | cell response to tastant (increase in intracellular calcium, FLIPR calcium flux) (MB9812 cells; listed as denatonium B)
C=C1C[C@@]23CC[C@H]4[C@@](C)(CCC[C@@]4(C)C(=O)O[C@@H]4O[C@H](CO)[C@@H](O)[C@H](O)[C@H]4O)[C@@H]2CC[C@]1(O[C@@H]1O[C@H](CO)[C@@H](O)[C@H](O[C@@H]2O[C@H](CO)[C@@H](O)[C@H](O)[C@H]2O)[C@H]1O[C@@H]1O[C@H](CO)[C@@H](O)[C@H](O)[C@H]1O)C3 [Rebaudioside A] | respond |  |  | 
CC[N+](CC)(CC(=O)Nc1c(C)cccc1C)Cc1ccccc1 [denatonium-B, denatonium benzoate] | respond | respond | respond | response
O=C(CO)[C@@H](O)[C@H](O)[C@H](O)CO [fructose] |  |  | response | 
OC[C@H]1O[C@@](CO)(O[C@H]2O[C@H](CO)[C@@H](O)[C@H](O)[C@H]2O)[C@@H](O)[C@@H]1O [sucrose] |  |  | response | 
